Test results published in paper PMC12396559 (Virus Research, 2025).

How the values were obtained:
in vitro [1] = settings: human
MPXV^Liberia (Clade IIa) = experiment: microbe, parasite or virus in culture; format: cell-based; settings: Monkeypox virus, Vero C1008, 120 h, read-out: EC50 against MPXV^Liberia
VeroE6 cells [2] = test system: VeroE6 cells
in vitro [3] = settings: human; remark: listed apart in the source
MPXV^Zr-599 (Clade I) = experiment: microbe, parasite or virus in culture; format: cell-based; settings: Monkeypox virus, Vero C1008, 120 h, read-out: EC50 against MPXV^Zr-599
HeLa cells = settings: for concentration at which the agent showed cytotoxicity, reducing the number of cells: human
Huh7 cells = settings: for concentration at which the agent showed cytotoxicity, reducing the number of cells: human
MPXV^SPL2A7 (Clade IIb) = experiment: microbe, parasite or virus in culture; format: cell-based; settings: Monkeypox virus, Vero C1008, 120 h, read-out: EC50 against MPXV^SPL2A7
VeroE6 cells [4] = test system: VeroE6 cells; remark: listed apart in the source
clade II mpox = settings: human, in vivo; cited from earlier work
in vitro [5] = settings: African green monkey
clade I mpox = settings: human, in vivo; cited from earlier work

Compound	CC50 (in vitro [1])	EC50 (MPXV^Liberia (Clade IIa))	cell number on day 5 subtracted with cell number on Day 0 (VeroE6 cells [2])	CC50 (in vitro [3])	EC50 (MPXV^Zr-599 (Clade I))	concentration at which the agent showed cytotoxicity, reducing the number of cells (HeLa cells)	concentration at which the agent showed cytotoxicity, reducing the number of cells (Huh7 cells)	EC50 (MPXV^SPL2A7 (Clade IIb))	protein production (F-actin quantification), in words (VeroE6 cells [4])	number of cells (DAPI) (VeroE6 cells [2])	amount of F-actin (images) (VeroE6 cells [4])	concentration at which production of virally-encoded proteins was blocked (and above) (MPXV^SPL2A7)	number of the cells (nuclei stained with DAPI) (MPXV^SPL2A7)	cytostaticity and/or cytotoxicity (in words) (HeLa cells)	cytostaticity and/or cytotoxicity (in words) (Huh7 cells)	clinical efficacy (clade II mpox)	CC50 (in vitro [5])	suppression of protein production (F-actin quantification) (VeroE6 cells [4])	duration of mpox lesions (clade I mpox)
Nc1ccn(C[C@@H](CO)OCP(=O)(O)O)c(=O)n1 [Cidofovir, cidofovir]	> 100000 nM	15200 ± 3020 nM	below zero	> 100000 nM	17300 ± 5030 nM	100 µM	100 µM	12200 ± 1190 nM	virtually totally blocked	–	–	–	–	–	–	–	–	–	–
O=c1[nH]c(=O)n([C@H]2C[C@H](O)[C@@H](CO)O2)cc1C(F)(F)F [Trifluridine, trifluridine]	–	3480 ± 1820 nM	–	–	3710 ± 1450 nM	–	–	6170 ± 1260 nM	–	–	–	–	–	–	–	–	–	–	–
Nc1ccn([C@@H]2O[C@H](CO)[C@@H](O)C2(F)F)c(=O)n1 [Gemcitabine, gemcitabine]	–	10 ± 10 nM	–	–	20 ± 20 nM	–	–	20 ± 20 nM	totally blocked	significant reduction	greatly reduced	–	–	–	–	–	–	–	–
O=C(NN1C(=O)[C@@H]2[C@@H]3C=C[C@@H]([C@H]4C[C@@H]34)[C@@H]2C1=O)c1ccc(C(F)(F)F)cc1 [Tecovirimat, tecovirimat]	> 100000 nM	4 ± 2 nM	–	> 100000 nM	5 ± 1 nM	–	–	1 ± 2 nM	–	–	–	≥ 0.01 µM	no significant reduction	without cytostaticity and/or cytotoxicity	without cytostaticity and/or cytotoxicity	no significant efficacy	> 100000 nM	about 50%	failed to shorten the duration of mpox lesions
CCCCCCCCCCCCCCCCOCCCOP(=O)(O)CO[C@H](CO)Cn1ccc(N)nc1=O [Brincidofovir, brincidofovir]	–	2010 ± 850 nM	below zero	–	2130 ± 950 nM	10 to 100 µM	10 to 100 µM	2030 ± 320 nM	virtually totally blocked	–	markedly reduced	–	–	–	–	–	–	–	–
